The text below walks through data of publication PMC6017928, “Informing Efforts to Develop Nitroreductase for Amine Production” (Molecules : A Journal of Synthetic Chemistry and Natural …, 2018).

For experiment [1], the target named is T1, MsPnbA (Mycolicibacterium smegmatis, UniProt A0R6D0).
T1 construct: gene nfnB; C-terminal poly-His tag; E. coli BL21(DE3), pET-28a; Ni-NTA, FMN-reconstituted
The experiment is described as follows: NADH oxidation, initial rates in microtiter plate; Michaelis-Menten fit. Conditions: NADH co-substrate, 25 °C; only normalised kcat/KM used in text. In kind it is biochemical.

For experiment [2], the target named is T2, StNfsB (Salmonella enterica, UniProt P15888).
T2 construct: gene nfsB; full length, 217 residues; untagged purification (ammonium sulfate, DEAE, Sephacryl); E. coli BL21(DE3), pET-28a; FMN-reconstituted; homodimer
T2 sequence (P15888 1-217): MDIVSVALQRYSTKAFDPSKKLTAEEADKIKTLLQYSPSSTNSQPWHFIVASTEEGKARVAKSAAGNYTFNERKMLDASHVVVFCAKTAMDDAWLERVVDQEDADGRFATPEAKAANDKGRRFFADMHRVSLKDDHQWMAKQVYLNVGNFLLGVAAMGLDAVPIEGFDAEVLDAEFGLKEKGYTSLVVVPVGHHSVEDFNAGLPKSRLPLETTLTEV
Put plainly: NADH oxidation at […] nm; Michaelis-Menten fit. Format: biochemical. The conditions noted are these: 0.5 mM NADH, 25 °C.

T1 sequence (A0R6D0 whole entry): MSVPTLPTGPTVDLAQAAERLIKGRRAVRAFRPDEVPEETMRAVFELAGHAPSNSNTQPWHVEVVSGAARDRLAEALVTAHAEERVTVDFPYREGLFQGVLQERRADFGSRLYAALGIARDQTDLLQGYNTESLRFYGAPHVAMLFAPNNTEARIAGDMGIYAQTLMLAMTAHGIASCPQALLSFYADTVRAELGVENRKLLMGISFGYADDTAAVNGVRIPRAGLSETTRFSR

As to `O=[N+]([O-])c1ccccc1` [compound 1, nitrobenzene], in experiment [1], the “NADH oxidation, initial rates in microtiter plate; Michaelis-Menten fit” value is given as “dividing by the rate measured for the unsubstituted parent compound: nitrobenzene”. In experiment [2], the “NADH oxidation at 370 nm; Michaelis-Menten fit” value is on record as “dividing by the rate measured for the unsubstituted parent compound: nitrobenzene”.
